Results published in BigSolDB 2.1.

Conditions: in water

O=S(=O)([O-])c1cccc2ccccc12.[Na+]
Conditions	solubility (mole fraction)
278.15 K	0.0107
283.15 K	0.0109
288.15 K	0.0113
293.15 K	0.0119
298.15 K	0.0126
303.15 K	0.0134
308.15 K	0.0141
313.15 K	0.0152
318.15 K	0.0169
323.15 K	0.0192
